# Where “and” joins values, the source holds several entries; their conditions need not be identical. Equal values may be shown once.
# How the values were obtained:
# Test in all cases: LanthaScreen Eu Kinase Binding Assay, panel of 486 biochemical kinase assays
# various kinases [1] = biological target: various kinases (Homo sapiens, UniProt O00238); conditions: BMPR1B (ALK6)
# various kinases [2] = biological target: T1, various kinases (Homo sapiens, UniProt O75385); conditions: kinase ULK1; LanthaScreen Binding
# T1 sequence (O75385 1-1050): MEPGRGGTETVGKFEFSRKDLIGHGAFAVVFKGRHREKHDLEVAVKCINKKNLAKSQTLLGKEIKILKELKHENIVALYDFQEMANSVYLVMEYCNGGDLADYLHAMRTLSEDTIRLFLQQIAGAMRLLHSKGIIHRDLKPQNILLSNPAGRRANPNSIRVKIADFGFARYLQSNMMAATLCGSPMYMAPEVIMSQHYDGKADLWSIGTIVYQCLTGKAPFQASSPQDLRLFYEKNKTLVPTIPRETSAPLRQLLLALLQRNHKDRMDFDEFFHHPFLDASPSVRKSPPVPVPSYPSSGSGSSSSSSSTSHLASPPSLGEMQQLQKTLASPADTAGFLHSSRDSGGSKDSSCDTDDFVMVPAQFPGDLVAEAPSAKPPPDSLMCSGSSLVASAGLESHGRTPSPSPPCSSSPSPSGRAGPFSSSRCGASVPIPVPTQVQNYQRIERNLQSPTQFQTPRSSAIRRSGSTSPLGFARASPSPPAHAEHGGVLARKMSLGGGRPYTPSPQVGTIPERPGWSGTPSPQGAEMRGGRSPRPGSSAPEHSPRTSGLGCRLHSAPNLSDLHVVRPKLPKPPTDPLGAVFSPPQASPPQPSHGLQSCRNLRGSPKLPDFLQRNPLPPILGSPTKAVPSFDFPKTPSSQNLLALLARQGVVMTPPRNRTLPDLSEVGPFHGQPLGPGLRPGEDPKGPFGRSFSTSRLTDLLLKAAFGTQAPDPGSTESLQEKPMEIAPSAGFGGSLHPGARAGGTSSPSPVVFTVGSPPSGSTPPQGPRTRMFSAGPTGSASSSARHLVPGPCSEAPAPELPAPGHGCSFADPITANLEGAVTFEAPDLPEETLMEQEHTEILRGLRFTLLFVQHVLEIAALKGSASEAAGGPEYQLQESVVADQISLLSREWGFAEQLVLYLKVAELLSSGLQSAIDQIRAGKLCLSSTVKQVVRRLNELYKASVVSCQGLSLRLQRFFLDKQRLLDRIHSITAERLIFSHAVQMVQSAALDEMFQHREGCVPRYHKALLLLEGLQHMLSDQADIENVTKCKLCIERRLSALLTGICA
# various kinases [3] = biological target: T2, various kinases (Homo sapiens, UniProt O94768); conditions: kinase STK17B (DRAK2); LanthaScreen Binding
# T2 sequence (O94768 1-372): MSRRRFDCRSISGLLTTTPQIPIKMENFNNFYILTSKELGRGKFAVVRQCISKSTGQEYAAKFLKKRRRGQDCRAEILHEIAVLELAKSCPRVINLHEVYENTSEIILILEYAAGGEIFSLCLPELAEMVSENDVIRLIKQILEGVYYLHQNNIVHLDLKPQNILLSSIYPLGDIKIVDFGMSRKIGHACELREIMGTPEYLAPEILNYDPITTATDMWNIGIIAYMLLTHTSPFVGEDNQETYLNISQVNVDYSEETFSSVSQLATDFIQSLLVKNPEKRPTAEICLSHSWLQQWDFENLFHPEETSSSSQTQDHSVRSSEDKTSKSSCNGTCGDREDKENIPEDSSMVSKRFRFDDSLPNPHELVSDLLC
# various kinases [4] = biological target: various kinases (Homo sapiens, UniProt P04049, Y340D/Y341D); conditions: kinase RAF1 (cRAF) Y340D Y341D; LanthaScreen Binding
# various kinases [5] = biological target: various kinases (Homo sapiens, UniProt P10721, D820E); conditions: KIT D820E
# various kinases [6] = biological target: various kinases (Homo sapiens, UniProt P10721, N822K); conditions: KIT N822K
# various kinases [7] = biological target: various kinases (Homo sapiens, UniProt P15056, V600E); conditions: BRAF V599E
# various kinases [8] = biological target: various kinases (Homo sapiens, UniProt P19525); conditions: EIF2AK2 (PKR)
# various kinases [9] = biological target: various kinases (Homo sapiens, UniProt P22607, G697C); conditions: FGFR3 G697C
# various kinases [10] = biological target: various kinases (Homo sapiens, UniProt P22694); conditions: kinase PRKACB (PRKAC beta); LanthaScreen Binding
# various kinases [11] = biological target: various kinases (Homo sapiens, UniProt P36894); conditions: BMPR1A (ALK3)
# various kinases [12] = biological target: various kinases (Homo sapiens, UniProt P37023); conditions: ACVRL1 (ALK1)
# various kinases [13] = biological target: various kinases (Homo sapiens, UniProt Q02750); conditions: MAP2K1 (MEK1)
# various kinases [14] = biological target: various kinases (Homo sapiens, UniProt Q15746); conditions: MYLK (MLCK)
# various kinases [15] = biological target: various kinases (Homo sapiens, UniProt Q16513); conditions: kinase PKN2 (PRK2); LanthaScreen Binding
# various kinases [16] = biological target: various kinases (Homo sapiens, UniProt Q86Y07); conditions: kinase VRK2; LanthaScreen Binding
# various kinases [17] = biological target: various kinases (Homo sapiens, UniProt Q8IWQ3); conditions: BRSK2
# various kinases [18] = biological target: various kinases (Homo sapiens, UniProt Q99558); conditions: MAP3K14 (NIK)
# various kinases [19] = biological target: various kinases (Homo sapiens, UniProt Q9UM73, C1156Y); conditions: ALK C1156Y
# various kinases [20] = biological target: various kinases (Homo sapiens, UniProt Q9UM73, F1174L); conditions: ALK F1174L
# Chain of various kinases (Homo sapiens, UniProt Q16513) (Q16513 whole entry): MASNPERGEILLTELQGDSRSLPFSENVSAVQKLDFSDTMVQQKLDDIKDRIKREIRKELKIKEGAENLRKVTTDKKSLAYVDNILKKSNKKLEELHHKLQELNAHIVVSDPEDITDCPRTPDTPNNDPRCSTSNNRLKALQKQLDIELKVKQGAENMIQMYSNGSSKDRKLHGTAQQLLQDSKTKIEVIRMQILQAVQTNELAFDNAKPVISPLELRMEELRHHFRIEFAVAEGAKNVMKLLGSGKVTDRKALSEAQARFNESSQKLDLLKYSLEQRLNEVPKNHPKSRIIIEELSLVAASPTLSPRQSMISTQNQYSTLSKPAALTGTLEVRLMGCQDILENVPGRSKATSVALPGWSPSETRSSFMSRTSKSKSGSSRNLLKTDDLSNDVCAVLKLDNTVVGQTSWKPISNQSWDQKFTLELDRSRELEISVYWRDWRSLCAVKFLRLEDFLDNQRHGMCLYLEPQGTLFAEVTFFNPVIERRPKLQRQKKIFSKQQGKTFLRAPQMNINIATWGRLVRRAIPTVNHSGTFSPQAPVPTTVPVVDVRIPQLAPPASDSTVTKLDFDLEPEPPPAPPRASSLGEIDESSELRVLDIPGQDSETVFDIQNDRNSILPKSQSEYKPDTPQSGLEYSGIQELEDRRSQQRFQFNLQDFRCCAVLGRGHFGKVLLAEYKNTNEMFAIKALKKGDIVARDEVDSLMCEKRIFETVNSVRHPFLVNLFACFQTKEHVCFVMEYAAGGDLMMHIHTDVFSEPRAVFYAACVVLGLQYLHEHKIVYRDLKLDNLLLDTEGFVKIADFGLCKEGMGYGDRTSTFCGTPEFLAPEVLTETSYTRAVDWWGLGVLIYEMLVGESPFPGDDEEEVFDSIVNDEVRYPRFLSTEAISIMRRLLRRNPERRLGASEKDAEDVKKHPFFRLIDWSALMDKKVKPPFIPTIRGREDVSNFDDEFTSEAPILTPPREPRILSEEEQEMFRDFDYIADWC
# Chain of various kinases (Homo sapiens, UniProt P04049, Y340D/Y341D) (P04049 whole entry Y340D/Y341D): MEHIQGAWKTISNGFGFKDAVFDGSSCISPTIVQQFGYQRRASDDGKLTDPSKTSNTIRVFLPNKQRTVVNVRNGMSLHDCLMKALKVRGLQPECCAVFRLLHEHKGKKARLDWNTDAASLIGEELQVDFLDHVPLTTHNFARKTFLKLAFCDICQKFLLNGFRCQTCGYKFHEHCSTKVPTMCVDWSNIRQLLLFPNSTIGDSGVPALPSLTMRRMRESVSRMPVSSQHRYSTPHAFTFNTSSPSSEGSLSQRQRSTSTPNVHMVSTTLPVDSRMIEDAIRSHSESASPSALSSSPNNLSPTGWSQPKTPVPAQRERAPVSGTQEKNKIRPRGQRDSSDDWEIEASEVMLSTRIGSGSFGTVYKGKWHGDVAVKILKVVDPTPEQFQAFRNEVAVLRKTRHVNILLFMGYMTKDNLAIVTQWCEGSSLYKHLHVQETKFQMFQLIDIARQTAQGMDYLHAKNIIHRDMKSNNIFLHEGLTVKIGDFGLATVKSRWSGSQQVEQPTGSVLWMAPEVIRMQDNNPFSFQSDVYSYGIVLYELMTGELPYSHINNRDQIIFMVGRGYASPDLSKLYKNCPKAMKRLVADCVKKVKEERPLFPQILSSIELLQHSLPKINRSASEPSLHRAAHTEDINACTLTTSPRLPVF
# Chain of various kinases (Homo sapiens, UniProt Q86Y07) (Q86Y07 whole entry): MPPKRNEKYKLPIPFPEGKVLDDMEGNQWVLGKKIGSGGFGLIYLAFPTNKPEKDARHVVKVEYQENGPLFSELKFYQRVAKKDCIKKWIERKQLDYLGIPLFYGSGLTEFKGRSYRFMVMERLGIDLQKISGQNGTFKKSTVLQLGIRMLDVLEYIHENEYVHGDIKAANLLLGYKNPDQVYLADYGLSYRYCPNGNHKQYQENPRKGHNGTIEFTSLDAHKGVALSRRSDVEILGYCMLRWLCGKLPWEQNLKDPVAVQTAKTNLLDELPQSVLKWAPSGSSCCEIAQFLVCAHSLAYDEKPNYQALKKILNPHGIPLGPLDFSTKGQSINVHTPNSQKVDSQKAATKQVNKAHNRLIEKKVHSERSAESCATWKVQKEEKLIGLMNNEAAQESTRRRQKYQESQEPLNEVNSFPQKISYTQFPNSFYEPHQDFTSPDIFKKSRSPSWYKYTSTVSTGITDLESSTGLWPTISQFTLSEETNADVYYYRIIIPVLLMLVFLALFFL
# Chain of various kinases (Homo sapiens, UniProt O00238) (O00238 14-502): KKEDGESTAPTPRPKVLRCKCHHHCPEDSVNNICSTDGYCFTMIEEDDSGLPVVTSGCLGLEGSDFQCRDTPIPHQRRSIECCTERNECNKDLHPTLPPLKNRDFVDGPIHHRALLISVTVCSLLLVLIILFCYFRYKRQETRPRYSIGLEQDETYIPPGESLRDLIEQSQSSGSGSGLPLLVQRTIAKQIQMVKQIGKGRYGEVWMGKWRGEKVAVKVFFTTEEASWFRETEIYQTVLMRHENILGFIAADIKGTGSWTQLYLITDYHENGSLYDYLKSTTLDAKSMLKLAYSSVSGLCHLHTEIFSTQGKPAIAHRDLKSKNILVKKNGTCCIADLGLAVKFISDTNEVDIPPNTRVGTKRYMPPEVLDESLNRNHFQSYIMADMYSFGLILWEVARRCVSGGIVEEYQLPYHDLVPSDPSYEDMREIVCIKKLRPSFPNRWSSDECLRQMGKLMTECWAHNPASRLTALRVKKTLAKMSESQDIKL
# Chain of various kinases (Homo sapiens, UniProt P15056, V600E) (P15056 whole entry V600E): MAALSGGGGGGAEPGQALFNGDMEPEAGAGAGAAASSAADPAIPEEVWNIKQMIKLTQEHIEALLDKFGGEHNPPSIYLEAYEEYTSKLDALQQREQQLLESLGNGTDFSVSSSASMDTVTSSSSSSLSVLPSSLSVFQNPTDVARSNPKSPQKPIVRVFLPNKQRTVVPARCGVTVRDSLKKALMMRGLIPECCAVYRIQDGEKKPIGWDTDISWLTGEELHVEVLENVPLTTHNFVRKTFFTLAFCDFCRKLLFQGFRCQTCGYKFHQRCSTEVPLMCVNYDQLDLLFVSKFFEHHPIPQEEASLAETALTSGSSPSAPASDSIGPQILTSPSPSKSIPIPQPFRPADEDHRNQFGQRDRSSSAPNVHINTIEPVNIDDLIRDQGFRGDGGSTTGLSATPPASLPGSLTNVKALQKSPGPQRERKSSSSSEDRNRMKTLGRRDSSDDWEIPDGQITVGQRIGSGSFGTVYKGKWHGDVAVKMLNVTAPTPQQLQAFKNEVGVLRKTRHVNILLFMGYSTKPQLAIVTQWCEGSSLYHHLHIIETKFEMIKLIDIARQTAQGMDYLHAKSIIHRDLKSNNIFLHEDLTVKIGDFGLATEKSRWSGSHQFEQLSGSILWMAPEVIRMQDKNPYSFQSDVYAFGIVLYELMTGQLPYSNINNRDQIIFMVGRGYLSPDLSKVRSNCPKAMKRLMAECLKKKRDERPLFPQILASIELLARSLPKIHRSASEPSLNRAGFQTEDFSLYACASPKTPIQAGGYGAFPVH
# Chain of various kinases (Homo sapiens, UniProt Q02750) (Q02750 whole entry): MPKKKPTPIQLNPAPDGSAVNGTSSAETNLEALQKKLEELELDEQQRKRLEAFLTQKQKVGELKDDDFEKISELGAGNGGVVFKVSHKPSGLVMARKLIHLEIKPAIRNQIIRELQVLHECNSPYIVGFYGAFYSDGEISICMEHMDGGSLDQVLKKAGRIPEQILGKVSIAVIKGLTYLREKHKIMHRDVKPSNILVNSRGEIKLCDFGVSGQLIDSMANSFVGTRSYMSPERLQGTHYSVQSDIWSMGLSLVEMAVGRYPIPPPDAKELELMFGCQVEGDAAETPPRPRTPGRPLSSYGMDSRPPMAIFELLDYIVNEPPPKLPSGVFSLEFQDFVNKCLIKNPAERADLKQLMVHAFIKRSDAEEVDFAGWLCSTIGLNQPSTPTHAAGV
# Chain of various kinases (Homo sapiens, UniProt P10721, D820E) (P10721 26-976 D820E): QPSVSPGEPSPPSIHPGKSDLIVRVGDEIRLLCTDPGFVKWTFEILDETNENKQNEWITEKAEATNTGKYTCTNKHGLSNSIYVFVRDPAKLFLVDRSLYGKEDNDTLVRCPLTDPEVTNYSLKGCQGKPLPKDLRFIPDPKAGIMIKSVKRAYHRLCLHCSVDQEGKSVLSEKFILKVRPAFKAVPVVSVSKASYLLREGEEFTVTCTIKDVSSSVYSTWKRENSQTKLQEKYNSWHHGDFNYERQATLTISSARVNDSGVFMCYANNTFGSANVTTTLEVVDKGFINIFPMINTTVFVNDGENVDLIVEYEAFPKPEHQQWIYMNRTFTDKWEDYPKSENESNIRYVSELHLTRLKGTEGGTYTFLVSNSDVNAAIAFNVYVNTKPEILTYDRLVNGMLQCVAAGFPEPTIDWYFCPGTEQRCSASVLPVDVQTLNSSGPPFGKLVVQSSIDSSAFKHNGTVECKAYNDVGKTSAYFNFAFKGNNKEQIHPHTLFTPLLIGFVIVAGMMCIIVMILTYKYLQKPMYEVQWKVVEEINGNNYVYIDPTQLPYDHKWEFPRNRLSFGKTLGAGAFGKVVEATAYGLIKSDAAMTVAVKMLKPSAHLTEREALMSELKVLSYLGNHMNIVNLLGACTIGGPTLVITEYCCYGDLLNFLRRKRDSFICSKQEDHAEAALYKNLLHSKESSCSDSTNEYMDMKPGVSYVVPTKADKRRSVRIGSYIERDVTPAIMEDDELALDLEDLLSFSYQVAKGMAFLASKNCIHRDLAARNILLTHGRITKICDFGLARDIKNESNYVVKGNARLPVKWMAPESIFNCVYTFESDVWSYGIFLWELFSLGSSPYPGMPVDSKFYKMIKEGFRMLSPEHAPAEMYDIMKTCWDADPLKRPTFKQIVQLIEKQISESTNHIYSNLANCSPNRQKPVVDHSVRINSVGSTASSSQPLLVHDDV
# Chain of various kinases (Homo sapiens, UniProt P10721, N822K) (P10721 26-976 N822K): as the sequence (P10721 26-976 D820E) above, with E795D, N797K counted along it
smiles,measurement,setting,value
COc1ccc2c(c1)[C@]1(C[C@H]1c1ccc3c(/C=C/c4ccc(CN5C[C@@H](C)O[C@@H](C)C5)cc4)n[nH]c3c1)C(=O)N2 [CFI-400945],% Inhibition,various kinases [1],5% and 8%
same,% Inhibition Average,various kinases [2],3%
same,% Inhibition Duplicate #1,various kinases [2],4%
same,% Inhibition Duplicate #2,various kinases [2],2%
same,% Inhibition Average,various kinases [3],18%
same,% Inhibition Duplicate #1,various kinases [3],21%
same,% Inhibition Duplicate #2,various kinases [3],16%
same,% Inhibition Average,various kinases [4],-3%
same,% Inhibition Duplicate #1,various kinases [4],-6%
same,% Inhibition Duplicate #2,various kinases [4],-1%
same,% Inhibition,various kinases [5],3% and 4%
same,% Inhibition,various kinases [6],6% and 3%
same,% Inhibition,various kinases [7],9% and 7%
same,% Inhibition,various kinases [8],3% and -4%
same,% Inhibition,various kinases [9],30% and 40%
same,% Inhibition Average,various kinases [10],-4%
same,% Inhibition Duplicate #1,various kinases [10],-6%
same,% Inhibition Duplicate #2,various kinases [10],-3%
same,% Inhibition,various kinases [11],-4% and 3%
same,% Inhibition,various kinases [12],10% and 0%
same,% Inhibition,various kinases [13],9% and 8%
same,% Inhibition,various kinases [14],0% and -2%
same,% Inhibition Average,various kinases [15],50%
same,% Inhibition Duplicate #1,various kinases [15],48%
same,% Inhibition Duplicate #2,various kinases [15],51%
same,% Inhibition Average,various kinases [16],13%
same,% Inhibition Duplicate #1,various kinases [16],17%
same,% Inhibition Duplicate #2,various kinases [16],8%
same,% Inhibition,various kinases [17],-4% and -7%
same,% Inhibition,various kinases [18],0% and 1%
same,% Inhibition,various kinases [19],47% and 51%
same,% Inhibition,various kinases [20],52% and 50%

# From publication PMC5762315, “Inhibition of polo-like kinase 4 (PLK4): a new therapeutic option for rhabdoid tumors and pediatric medulloblastoma” (Oncotarget, 2017)
